Reference: patent US20130224286A1, “METHODS AND COMPOSITIONS FOR TREATING POX VIRUS INFECTIONS” (priority 2010, published 2013)

Key:
[1] = tested on: Vaccinia virus; assay type: cell-based
[2] = tested on: HaCaT cells; assay: Toxicity on cells, MTT assay (Example 4, FIG. 3); assay type: cell-based, human; conditions: 1 day exposure
Experimental: Toxicity of test compounds on uninfected cell monolayers was measured using the standard tetrazolium dye MTT.
Test of various agents (BP: Benzoyl peroxide), at the indicated concentrations on triplicates of HaCaT cells in 96-well plates (FIG. 3).
Toxicity on cells (left side of panel): Cell monolayers were exposed to agents as indicated, and 1 day later, cellular viability was analysed by a standard MTT assay (control OD was between 1.15 and 1.3).

[3] = tested on: Vaccinia virus WR; assay type: cell-based
[4] = tested on: Vaccinia virus; assay: Direct virocidal effect on Vaccinia virus, 24 h exposure, BS-C-1 plaque assay (Example 6, FIG. 5); assay type: cell-based; conditions: 50 μM, 24 h at 37° C.
Experimental: Direct virocidal effect of various agents on Vaccinia virus (24 h exposure) Triplicates of Vaccinia virus in a 96-well plate were incubated with agents at 50 μM final concentration for 24 h at 37° C. After incubation, virus was diluted 1000-fold and quantified in a standard 24-well BS-C-1 plaque assay.
The various agents used were as follows: BP: Benzoyl peroxide, D: Dicoumarol, DNCB: Dinitrochlorobenzene, DNFB: Dinitrofluorobenzene, K1: Vitamin K1, K2: Vitamin K2, Menadione (M is fresh, M* is Menadione kept at RT for 2 months), MBS: Menadione bisulfite and Control.

[5] = tested on: HaCaT cells; conditions: 25 μM, 1 day, MTT
[6] = tested on: Molluscum contagiosum; assay: Treatment of a patient with Molluscum contagiosum lesions (topical painting); assay type: in vivo, human; conditions: 50 mM in DMSO painted on lesions, one to two times per day for 5 days, after 4 weeks
Experimental: A patient, previously treated for Molluscum contagiosum infection with curettage, had two recurrences of Molluscum contagiosum. In each instance, a number of early lesions, which where in the elbow region or the lower jaw region respectively, were treated one to two times per day for 5 consecutive days. Treatment consisted of painting the lesions with a cotton stick, applying a solution of 50 mM Menadione dissolved in DMSO to the tip of the lesion. […] Concentrations of Menadione, its analogues and additional compounds used in this invention are as indicated below: […]

CC1(S(=O)(=O)[O-])CC(=O)c2ccccc2C1=O.[Na+] (centres unmarked) [Menadione bisulfite]
virus replication [1]: inhibition of virus replication
cell toxicity [2]: dose-dependent cell toxicity
virus progeny [3]: reduced virus progeny in a dose-dependend manner
reduction of virus infectivity (direct virocidal effect) [4]: 95%

CC1=CC(=O)c2ccccc2C1=O [Menadione, 2-methyl-1,4-naphthoquinone]
effect on cell viability [5]: < 30%
state of the skin after treatment of Molluscum contagiosum lesions [6]: normal and without scar or discoloration
virus progeny [3]: reduced virus progeny in a dose-dependend manner

O=C(OOC(=O)c1ccccc1)c1ccccc1 [BP, Benzoyl peroxide]
virus replication [1]: inhibition of virus replication
cell toxicity [2]: dose-dependent cell toxicity
reduction of virus infectivity (direct virocidal effect) [4]: 43%

O=c1oc2ccccc2c(O)c1Cc1c(O)c2ccccc2oc1=O [Dicoumarol]
virus replication [1]: inhibition of virus replication
cell toxicity [2]: dose-dependent cell toxicity

Oc1ccc(O)cc1 [Hydroquinone]
virus replication [1]: no effect
cell toxicity [2]: no effect
